The record followed here is PubChem BioAssay AID434951 (Broad Institute, 2010).

Molecules are shown by their SMILES. pEC50: −log10 of the molar value. Calls of active or inactive are those of the source.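 How the source made its calls: active means a fitted half-maximal concentration EC50 for the rise in nuclear signal no higher than ten times the top dose tested; inconclusive means flat fit with activity between 30% and 70%, or unusable fit; inactive means EC50 beyond ten times the top dose.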 Where only a bound is given, the exact number is not on record here.

The experiment deals with Hypoxia-inducible factor 1-alpha (Homo sapiens) (UniProt Q16665). The experiment can be described thus: HIF pathway activation, GFP-HIF1alpha translocation – imaging, fluorescence, U2OS GFP-HIF1alpha, confirmation (AID 434951). The note with it: U2OS GFP-HIF1alpha nuclear intensity, high-content imaging.
Chain of Hypoxia-inducible factor 1-alpha (Homo sapiens) (Q16665 whole entry, looked up): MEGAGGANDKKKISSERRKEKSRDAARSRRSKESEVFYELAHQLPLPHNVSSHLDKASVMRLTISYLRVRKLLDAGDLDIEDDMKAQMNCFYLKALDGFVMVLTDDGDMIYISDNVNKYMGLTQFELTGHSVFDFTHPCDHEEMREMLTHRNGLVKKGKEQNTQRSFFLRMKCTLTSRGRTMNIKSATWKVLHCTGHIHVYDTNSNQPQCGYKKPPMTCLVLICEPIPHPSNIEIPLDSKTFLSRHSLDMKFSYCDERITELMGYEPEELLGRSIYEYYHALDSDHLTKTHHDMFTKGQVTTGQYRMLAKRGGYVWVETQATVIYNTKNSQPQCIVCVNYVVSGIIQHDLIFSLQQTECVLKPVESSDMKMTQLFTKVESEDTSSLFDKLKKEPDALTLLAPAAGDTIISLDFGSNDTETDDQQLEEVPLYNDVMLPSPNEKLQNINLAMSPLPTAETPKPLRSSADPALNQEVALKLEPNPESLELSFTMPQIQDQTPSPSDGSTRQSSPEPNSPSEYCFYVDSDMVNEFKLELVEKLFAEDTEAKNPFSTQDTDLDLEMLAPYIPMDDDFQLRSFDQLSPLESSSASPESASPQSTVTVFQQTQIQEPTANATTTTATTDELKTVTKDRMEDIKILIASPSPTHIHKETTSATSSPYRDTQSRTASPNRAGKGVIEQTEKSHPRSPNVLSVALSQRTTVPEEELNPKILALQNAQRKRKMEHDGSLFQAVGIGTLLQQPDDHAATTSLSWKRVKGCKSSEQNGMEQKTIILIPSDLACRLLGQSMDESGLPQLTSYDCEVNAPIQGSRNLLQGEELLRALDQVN
As to `O=C(NNC(=S)Nc1ccc(Cl)c(Cl)c1)c1ccccn1`, the pEC50 is 5.17.

Regarding `NC(=O)CSc1nnc2ccc(-c3ccc(Cl)cc3)nn12`, the EC50 was > 35 µM (inactive).

On to `CN(CC(=O)Nc1ccc(S(=O)(=O)N2CCCC2)cc1)CC(=O)Nc1cccc(F)c1`, for which the EC50 was > 35 µM (inactive).

With `COc1ccc(NC(=S)N2CCN(C(=O)c3ccccc3)CC2)cc1`, the EC50 is > 35 µM (inactive).

Turning to `COc1ccc(Cl)c(OC)c1C(=O)NC(=O)Nc1c(F)cc(F)cc1F`, the EC50 was > 35 µM (inactive).

As for `COc1ccc(-n2c(C)csc2=S)cc1`, the EC50 is > 35 µM (inactive).

Consider `Cc1nc([N+](=O)[O-])c(Br)n1Cc1ccc(Cl)c(Cl)c1`, for which the EC50 is > 35 µM (inactive).

As for `COc1ccc2nc(NC(=O)CSc3nccc(C)n3)sc2c1`, the EC50 is > 35 µM (inactive).

On to `Cc1cc(SCC(=O)N/N=C/c2ccc(O)cc2O)c(C)cc1Br`, for which the pEC50 is 4.49.

For `CC(C)C(=O)N1CCN(c2nc3ccc(Cl)cc3s2)CC1`, the EC50 is > 35 µM (inactive).

With `Cc1sc(NC(=O)c2ccco2)c(CN2CCC(C)CC2)c1C`, the EC50 was > 35 µM (inactive).

As to `Cc1ccc(Nc2c(-c3ccccn3)nc3ccc(C)cn23)cc1`, the pEC50 was 5.21.

In the case of `CCCn1c(SCC(=O)N2CCc3ccccc3C2)nc2c1c(=O)n(C)c(=O)n2C`, the EC50 was > 35 µM (inactive).

Turning to `COc1ccc(CC(=O)NNC(=S)NCC2CC2)cc1OC`, the EC50 was > 35 µM (inactive).

Consider `COC(=O)/C(=C(/F)SCC(C)=O)C(F)(F)F`, for which the EC50 is > 35 µM (inactive).

For `CC(=O)c1ccc(N(C(=O)c2csnn2)C(C(=O)NC(C)(C)C)c2cccs2)cc1` (stereo not drawn), the EC50 was > 35 µM (inactive).

As to `Oc1ccc(CN2CCC(Cc3ccccc3)CC2)c2cccnc12`, the pEC50 was 5.29.

With `CCCCCCN1C=CC=C/C1=C/C=C(C#N)C#N`, the EC50 was > 35 µM (inactive).

With `Cn1c(=O)cc(C(=O)N/N=C/c2ccc(F)cc2)[nH]c1=O`, the EC50 is > 35 µM (inactive).

For `Cn1c(CO)nc2c3ccccc3ccc21`, the EC50 was > 35 µM (inactive).

With `Cc1occc1C(=O)NC1CCCCCC1`, the EC50 was > 35 µM (inactive).

Take `CC(=O)Nc1nc2ccccc2n1CCOc1ccccc1Cl`: the EC50 was > 35 µM (inactive).

As to `CCCC(=O)NC(c1cccs1)c1cc(Cl)c2cccnc2c1O` (stereo not drawn), the negative-log EC50 (pEC50) was 5.14.

On to `Cc1ccc2nc(SCC(=O)N3CCCCC3)nc(=O)n2c1`, for which the EC50 is > 35 µM (inactive).

In the case of `Cc1ccc(OCCNC(=O)CCc2nc3sc4c(c3c(=O)[nH]2)CCCC4)cc1`, the EC50 was > 35 µM (inactive).

As for `Cc1cc(Br)cc(/C=N/NC(=O)c2ccc3c(c2)OCO3)c1O`, the pEC50 was 5.20.

For `Cn1c(NN=O)nc2ccccc21`, the pEC50 was 5.02.

For `C=CCNc1nc(-c2ccccn2)nnc1-c1ccccc1`, the pEC50 was 5.13.

In the case of `O=C(NCc1ccco1)c1cc(-c2cccs2)on1`, the pEC50 was 4.46.

As to `CC(C)Cc1nnc(NC(=O)CCC(=O)N2CCC3(CC2)OCCO3)s1`, the EC50 is > 35 µM (inactive).

As for `CC1CCN(Cc2c(C(=O)N/N=C/c3ccccc3O)nnn2-c2nonc2N)CC1`, the EC50 is > 35 µM (inactive).

Regarding `Cn1ncc(Cl)c1C(=O)Nc1nc2ccc(Cl)cc2s1`, the EC50 is > 35 µM (inactive).

With `Cc1cccnc1Nc1nc(-c2ccccn2)cs1`, the pEC50 is 5.42.

As for `O=C(NC(CSCc1ccccc1)C(=O)N/N=C/c1ccc(O)cc1O)c1ccc([N+](=O)[O-])cc1` (stereo not drawn), the pEC50 was 5.60.

For `COc1cccc(Nc2n[nH]c(=S)s2)c1`, the EC50 is > 35 µM (inactive).

As for `O=C(CCc1ccccc1)NC(c1cccs1)c1cc(Cl)c2cccnc2c1O` (stereo not drawn), the pEC50 is 4.45.

On to `COc1ccc(CCNC(=O)CSc2nc(-c3ccc(OC)c(OC)c3)ccc2C#N)cc1`, for which the EC50 was > 35 µM (inactive).

In the case of `O=C(NC1=NCCS1)c1cccc(NC(=O)c2ccco2)c1`, the EC50 is > 35 µM (inactive).
